Drawing on patent US20250163104A1, “MACROCYCLIC IMMUNOMODULATORS” (priority 2021, published 2025), this text covers IC50 for 14 compounds.

Like-named read-outs stand apart in the source and are kept apart here. Where a SMILES comes first, the peptide text is derived from it. Bridges are numbered along the chain shown (N, C = ends). [ ]: non-standard residue; d: D form. The star is where a group is joined. ξ: configuration not given here. Phe(4-COOH) = N[C@@H](Cc1ccc(C(=O)O)cc1)C(=O)O; Bip = N[C@@H](Cc1ccc(-c2ccccc2)cc1)C(=O)O; Phe(3-Cl) = N[C@@H](Cc1cccc(Cl)c1)C(=O)O; Phe(3-Me) = Cc1cccc(C[C@H](N)C(=O)O)c1; Val(3-OH) = CC(C)(O)[C@H](N)C(=O)O; 4Pal = N[C@@H](Cc1ccncc1)C(=O)O; Cha = N[C@@H](CC1CCCCC1)C(=O)O; Cit = NC(=O)NCCC[C@H](N)C(=O)O; Ile(3ξ) = CCC(C)[C@H](N)C(=O)O; Thr(3ξ) = CC(O)[C@H](N)C(=O)O; Carboxymethyl = O=C(O)C*; Orn = NCCC[C@H](N)C(=O)O; Pra = C#CC[C@H](N)C(=O)O; Dab = NCC[C@H](N)C(=O)O; Dap = NC[C@H](N)C(=O)O; Propargyl = C#CC*

The term IC50 denotes the concentration that gives 50% inhibition.

For the assay, the target named is T1, human PD-1 / PD-L1-Ig binding on Jurkat cell line over-expressing human PD-1 (Jurkat-PD-1) (Homo sapiens, UniProt Q15116).
T1 construct: expressed in transfected cells; host or cells: Jurkat
As to the kind of experiment: Jurkat-PD-1 Cell Binding High-Content Screening Assay (CBA). It is filed as cell-based. Particulars: PE-labeled PD-L1-Ig 20 nM final. The procedure, abridged: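 Compounds were preincubated with Jurkat-hPD-1 cells in DMEM plus 10% fetal calf serum for 2 h at 37° C. Phycoerythrin-labeled PD-L1-Ig (20 nM final) was then added for 1 hour. Cells were fixed in 4% paraformaldehyde with Hoechst 33342, and bound fluorescence was quantified by high-content imaging.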

[1] abbreviates: Jurkat-PD-1 cells, read-out: Jurkat HPD1_PDL1 IC50.

T1 sequence (Q15116 25-288): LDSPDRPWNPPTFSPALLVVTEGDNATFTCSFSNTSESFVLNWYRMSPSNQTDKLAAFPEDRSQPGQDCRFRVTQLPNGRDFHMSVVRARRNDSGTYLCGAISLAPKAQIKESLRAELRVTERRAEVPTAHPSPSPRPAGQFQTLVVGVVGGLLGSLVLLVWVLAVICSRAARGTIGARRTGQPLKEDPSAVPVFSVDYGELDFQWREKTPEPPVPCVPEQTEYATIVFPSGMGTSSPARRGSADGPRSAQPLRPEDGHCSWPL

On to `Cc1cccc(C[C@@H]2NC(=O)[C@H](CC(=O)O)NC(=O)[C@H](Cc3ccc(C(=O)O)cc3)NC(=O)[C@H](Cc3ccncc3)NC(=O)CSC[C@@H](C(=O)N[C@@H](C)C(N)=O)NC(=O)[C@H]([C@@H](C)O)NC(=O)[C@H](C(C)C)NC(=O)[C@H](CC(C)C)NC(=O)[C@H](CCN)NC(=O)[C@@H](CC(C)C)NC(=O)[C@H](CCCN)NC(=O)[C@H](C(C)C)NC(=O)[C@H](Cc3ccc(-c4ccccc4)cc3)NC(=O)[C@H](C(C)C)NC2=O)c1` [Compound 1182] ({CH2CO}-[4Pal][Phe(4-COOH)]D[Phe(3-Me)]V[Bip]V[Orn][dL][Dab]LVTCA-NH2; thioether N-14), for which the IC50 under setting [1] was 8.2 nM. With `C#CCOc1ccc(C[C@@H]2NC(=O)[C@H](Cc3ccc(-c4ccccc4)cc3)NC(=O)[C@H](Cc3ccc(C(=O)O)cc3)NC(=O)[C@H](Cc3cccc(C)c3)NC(=O)[C@H](CC(=O)O)NC(=O)[C@H](Cc3ccc(C(=O)O)cc3)NC(=O)[C@H](Cc3ccc(OCC(=O)O)cc3)NC(=O)CSC[C@@H](C(=O)N[C@@H](CCN)C(N)=O)NC(=O)[C@H](CCC(=O)O)NC(=O)[C@H](C(C)C)NC(=O)[C@H](CC3CCCCC3)NC(=O)[C@H](CCN)NC(=O)[C@@H](CC(C)C)NC(=O)[C@H](CCCN)NC2=O)cc1` [Compound 1844] ({CH2CO}-Y(Carboxymethyl)[Phe(4-COOH)]D[Phe(3-Me)][Phe(4-COOH)][Bip]Y(Propargyl)[Orn][dL][Dab][Cha]VEC[Dab]-NH2; thioether N-14), under setting [1], the IC50 worked out at 13.2 nM. In the case of `CC(C)C[C@H]1NC(=O)[C@H](CCCN)NC(=O)[C@H](CCC(=O)O)NC(=O)[C@H](Cc2ccc(-c3ccccc3)cc2)NC(=O)[C@H](C(C)C)NC(=O)[C@H](Cc2c[nH]c3ccccc23)NC(=O)[C@H](CC(=O)O)NC(=O)[C@H](Cc2ccc(OCC(=O)O)cc2)NC(=O)[C@H](CN)NC(=O)CSC[C@@H](C(=O)N[C@@H](C)C(N)=O)NC(=O)[C@H]([C@@H](C)O)NC(=O)[C@H](C(C)C)NC(=O)[C@H](Cc2cccc(Cl)c2)NC(=O)[C@H](CCN)NC1=O` [Compound 1506] ({CH2CO}-[Dap]Y(Carboxymethyl)DWV[Bip]E[Orn][dL][Dab][Phe(3-Cl)]VTCA-NH2; thioether N-14), the IC50 under setting [1] turned out to be 56.7 nM. In the case of `C#CCOc1ccc(C[C@@H]2NC(=O)[C@H](Cc3ccc(-c4ccccc4)cc3)NC(=O)[C@H](Cc3ccc(OCC(=O)O)cc3)NC(=O)[C@H](Cc3cccc(C)c3)NC(=O)[C@H](CC(=O)O)NC(=O)[C@H](Cc3ccc(OCC(=O)O)cc3)NC(=O)[C@H]([C@@H](C)O)NC(=O)CSC[C@@H](C(=O)N[C@@H](CCN)C(N)=O)NC(=O)[C@H](CCC(=O)O)NC(=O)[C@H](C(C)C)NC(=O)[C@H](CC3CCCCC3)NC(=O)[C@H](CCN)NC(=O)[C@@H](CC(C)C)NC(=O)[C@H](CCCN)NC2=O)cc1` [Compound 1836] ({CH2CO}-TY(Carboxymethyl)D[Phe(3-Me)]Y(Carboxymethyl)[Bip]Y(Propargyl)[Orn][dL][Dab][Cha]VEC[Dab]-NH2; thioether N-14), under setting [1], the IC50 came to 7.2 nM. Same read-out and setting: under `CCC(C)[C@@H]1NC(=O)[C@H](Cc2ccc(-c3ccccc3)cc2)NC(=O)[C@H](C(C)C)NC(=O)[C@H](Cc2cccc(C)c2)NC(=O)[C@H](CC(=O)O)NC(=O)[C@H](Cc2ccc(C(=O)O)cc2)NC(=O)[C@H](Cc2ccncc2)NC(=O)CSC[C@@H](C(N)=O)NC(=O)[C@H]([C@@H](C)O)NC(=O)[C@H](C(C)C)NC(=O)[C@H](CC2CCCCC2)NC(=O)[C@H](CCN)NC(=O)[C@@H](CC(C)C)NC(=O)[C@H](CCCN)NC1=O` (stereo partly drawn) [Compound 2275] ({CH2CO}-[4Pal][Phe(4-COOH)]D[Phe(3-Me)]V[Bip][Ile(3ξ)][Orn][dL][Dab][Cha]VTC-NH2; thioether N-14) stands 33.5 nM; under `CC(C)C[C@H]1NC(=O)[C@H](CCCN)NC(=O)[C@H](CCC(=O)O)NC(=O)[C@H](Cc2ccc(-c3ccccc3)cc2)NC(=O)[C@H](C(C)C)NC(=O)[C@H](Cc2c[nH]c3ccccc23)NC(=O)[C@H](CC(=O)O)NC(=O)[C@H](Cc2ccc(OCC(=O)O)cc2)NC(=O)[C@H](CN)NC(=O)CSC[C@@H](C(=O)N[C@@H](C)C(N)=O)NC(=O)[C@H]([C@@H](C)O)NC(=O)[C@H](C(C)C)NC(=O)[C@H](CC2CCCCC2)NC(=O)[C@H](CCC(N)=O)NC1=O` [Compound 1513] ({CH2CO}-[Dap]Y(Carboxymethyl)DWV[Bip]E[Orn][dL]Q[Cha]VTCA-NH2; thioether N-14), 25.7 nM; under `CC(C)C[C@H]1NC(=O)[C@H](CCCN)NC(=O)[C@H](C(C)C)NC(=O)[C@H](Cc2ccc(-c3ccccc3)cc2)NC(=O)[C@H](C(C)C)NC(=O)[C@H](Cc2c[nH]c3ccccc23)NC(=O)[C@H](CC(=O)O)NC(=O)[C@H](Cc2ccc(OCC(=O)O)cc2)NC(=O)[C@H](C(C)O)NC(=O)CSC[C@@H](C(=O)N[C@@H](CCN)C(N)=O)NC(=O)[C@H](C(C)O)NC(=O)[C@H](C(C)C)NC(=O)[C@H](CC2CCCCC2)NC(=O)[C@H](CCN)NC1=O` (stereo partly drawn) [Compound 2601] ({CH2CO}-[Thr(3ξ)]Y(Carboxymethyl)DWV[Bip]V[Orn][dL][Dab][Cha]V[Thr(3ξ)]C[Dab]-NH2; thioether N-14), 12.6 nM. For the compound `C#CC[C@H](NC(=O)[C@H](CCN)NC(=O)[C@@H]1CSCC(=O)N[C@@H](CCN)C(=O)N[C@@H](Cc2ccc(C(=O)O)cc2)C(=O)N[C@@H](CC(=O)O)C(=O)N[C@@H](Cc2cccc(C)c2)C(=O)N[C@@H](Cc2ccc(C(=O)O)cc2)C(=O)N[C@@H](Cc2ccc(-c3ccccc3)cc2)C(=O)N[C@@H](Cc2ccc(C(=O)O)cc2)C(=O)N[C@@H](CCCN)C(=O)N[C@H](CC(C)C)C(=O)N[C@@H](CCN)C(=O)N[C@@H](CC2CCCCC2)C(=O)N[C@@H](C(C)(C)O)C(=O)N[C@@H](CCCN)C(=O)N1)C(N)=O` [Compound 1850] ({CH2CO}-[Dab][Phe(4-COOH)]D[Phe(3-Me)][Phe(4-COOH)][Bip][Phe(4-COOH)][Orn][dL][Dab][Cha][Val(3-OH)][Orn]C[Dab][Pra]-NH2; thioether N-14), the half-inhibitory concentration (IC50) under setting [1] was 5.2 nM.

Under “Jurkat HPD1_PDL1 IC50, Jurkat-PD-1 cells”, `CC(C)C[C@H]1NC(=O)[C@H](CCCN)NC(=O)[C@H](CCCNC(N)=O)NC(=O)[C@H](Cc2ccc(-c3ccccc3)cc2)NC(=O)[C@H](C(C)C)NC(=O)[C@H](Cc2c[nH]c3ccccc23)NC(=O)[C@H](CC(=O)O)NC(=O)[C@H](Cc2ccc(OCC(=O)O)cc2)NC(=O)[C@H](Cc2ccncc2)NC(=O)CSC[C@@H](C(=O)N[C@@H](C)C(N)=O)NC(=O)[C@H]([C@@H](C)O)NC(=O)[C@H](C(C)C)NC(=O)[C@H](CC2CCCCC2)NC(=O)[C@H](Cc2c[nH]cn2)NC1=O` [Compound 1610] yielded an IC50 of 21.5 nM.

As for `CCC(C)[C@@H]1NC(=O)[C@H](Cc2ccc(-c3ccccc3)cc2)NC(=O)[C@H](C(C)C)NC(=O)[C@H](Cc2cccc(C)c2)NC(=O)[C@H](CC(=O)O)NC(=O)[C@H](Cc2ccc(OCC(=O)O)cc2)NC(=O)[C@H](Cc2ccc(OCC(=O)O)cc2)NC(=O)CSC[C@@H](C(=O)N[C@@H](C)C(N)=O)NC(=O)[C@H](CO)NC(=O)[C@H](C(C)C)NC(=O)[C@H](CC2CCCCC2)NC(=O)[C@H](CCN)NC(=O)[C@@H](CC(C)C)NC(=O)[C@H](CCCN)NC1=O` (some centres unmarked) [Compound 2534], the IC50 under setting [1] worked out at 21.3 nM. In the case of `CC(C)C[C@H]1NC(=O)[C@H](CCCN)NC(=O)[C@H](CCCNC(N)=O)NC(=O)[C@H](Cc2ccc(-c3ccccc3)cc2)NC(=O)[C@H](C(C)C)NC(=O)[C@H](Cc2c[nH]c3ccccc23)NC(=O)[C@H](CC(=O)O)NC(=O)[C@H](CC(=O)O)NC(=O)[C@H](CN)NC(=O)CSC[C@@H](C(=O)N[C@@H](C)C(N)=O)NC(=O)[C@H]([C@@H](C)O)NC(=O)[C@H](C(C)C)NC(=O)[C@H](CC2CCCCC2)NC(=O)[C@H](CCN)NC1=O` [Compound 2120] ({CH2CO}-[Dap]DDWV[Bip][Cit][Orn][dL][Dab][Cha]VTCA-NH2; thioether N-14), under setting [1], the concentration for half-maximal inhibition (IC50) was 964 nM.

Regarding `CC(C)C[C@@H]1NC(=O)[C@H](CC2CCCCC2)NC(=O)[C@H](CCN)NC(=O)[C@@H](CC(C)C)NC(=O)[C@H](CCCN)NC(=O)[C@H](CCCNC(N)=O)NC(=O)[C@H](Cc2ccc(-c3ccccc3)cc2)NC(=O)[C@H](C(C)C)NC(=O)[C@H](Cc2c[nH]c3ccccc23)NC(=O)[C@H](CC(=O)O)NC(=O)[C@H](Cc2ccc(OCC(=O)O)cc2)NC(=O)[C@H](CN)NC(=O)CSC[C@@H](C(=O)N[C@@H](C)C(N)=O)NC(=O)[C@H]([C@@H](C)O)NC1=O` [Compound 1322] ({CH2CO}-[Dap]Y(Carboxymethyl)DWV[Bip][Cit][Orn][dL][Dab][Cha]LTCA-NH2; thioether N-14), the IC50 under setting [1] amounted to 21.3 nM. On the same count and under the same terms, in the case of `CC(C)C[C@H]1NC(=O)[C@H](CCCN)NC(=O)[C@H](CCCNC(N)=O)NC(=O)[C@H](Cc2ccc(-c3ccccc3)cc2)NC(=O)[C@H](C(C)C)NC(=O)[C@H](Cc2c[nH]c3ccccc23)NC(=O)[C@H](CC(=O)O)NC(=O)[C@H](Cc2ccc(OCC(=O)O)cc2)NC(=O)[C@H](CN)NC(=O)CSC[C@@H](C(=O)N[C@@H](C)C(N)=O)NC(=O)[C@H]([C@@H](C)O)NC(=O)[C@H](C(C)C)NC(=O)[C@H](CCC2CCCCC2)NC(=O)[C@H](CCN)NC1=O` [Compound 1348] it was 40 nM. Consider `CC(C)C[C@@H]1NC(=O)[C@H](CCN)NC(=O)[C@@H](CC(C)C)NC(=O)[C@H](CCCCN)NC(=O)[C@H](C(C)C)NC(=O)[C@H](Cc2ccc(-c3ccccc3)cc2)NC(=O)[C@H](C(C)C)NC(=O)[C@H](Cc2c[nH]c3ccccc23)NC(=O)[C@H](CC(N)=O)NC(=O)[C@H](Cc2ccc(O)cc2)NC(=O)[C@H](CC(N)=O)NC(=O)CSC[C@@H](C(=O)NCC(N)=O)NC(=O)[C@H](CO)NC(=O)[C@H](C(C)C)NC1=O` [Compound 1082] ({CH2CO}-NYNWV[Bip]VK[dL][Dab]LVSCG-NH2; thioether N-14), for which the IC50 under setting [1] came out at 41.5 nM.
